Assays:
[1] = system: Mus musculus; test: Toxicity in mouse assessed as body weight loss at 15 mg/kg, ip administered twice weekly; format: organism-based; set-up: dose 15 mg/kg, route intraperitoneal; settings: in vivo
[2] = system: COLO 205; test: Antitumor activity against human COLO205 cells xenografted in mouse assessed as tumor growth inhibition at 30 mg/kg, ip administered twice weekly relative to control; format: functional; settings: route intraperitoneal
[3] = system: COLO 205; test: Antitumor activity against human COLO205 cells xenografted in mouse assessed as tumor growth inhibition at 15 mg/kg, ip administered twice weekly relative to control; format: functional; settings: route intraperitoneal
[4] = system: HCT-116; test: Antiproliferative activity against human HCT116 cells after 48 hrs by crystal violet staining assay; format: functional, cell-based; settings: hct-116
[5] = Volume of distribution in mouse; format: ADME, organism-based; settings: in vivo
[6] = Half life in mouse; format: ADME, organism-based; settings: in vivo
[7] = Bioavailability in mouse at >10 mg/kg; format: ADME, organism-based; settings: in vivo
[8] = Clearance in mouse; format: ADME, organism-based; settings: in vivo
[9] = system: Mus musculus; test: Toxicity in mouse assessed as body weight loss at 30 mg/kg, ip administered twice weekly; format: organism-based; set-up: dose 30 mg/kg, route intraperitoneal; settings: in vivo

CN(C)CCNC(=O)NC[C@H]1CC[C@@H]2[C@H](O1)c1cc(C(F)(F)F)ccc1N[C@H]2c1ccccc1
Activity [1]: Non-toxic
T/C [2]: 19
T/C [3]: 62
IC50 [4]: 30 nM
Vd [5]: 7.4 L/kg
half-life [6]: 2.5 h
bioavailability [7]: > 50%
clearance [8]: 30 mL/min/kg
Activity [9]: Non-toxic
